Results from paper PMC10126473 (Frontiers in Pharmacology, 2023).
Several values for one entry are separate records, joined by “and”; a condition that tells them apart may be missing. Identical values can stand only once.

Key:
[1] = Parallel artificial membrane permeability assay (PAMPA); conditions: pH 7.4
Procedure: The test samples (0.05 mM test article in pH 7.4 buffer with 0.5% DMSO) were added in the donor compartment and were stirred using the Gutbox technology (Pion Inc.) to reduce the aqueous boundary layer. The test article concentrations in the donor and acceptor compartments were measured using a UV plate reader (Nano Quant, Infinite 200 PRO, Tecan Inc., Männedorf, Switzerland).

[2] = Incubation in liver cytosolic fractions; format: in vitro ADME; conditions: mouse, hamster, human, read-out: in vitro metabolic half-life (t1/2)
Procedure: The in vitro metabolic stability of PDN was determined in the plasma and liver fractions of three species. […] Based on the formation of Nc in plasma, about 51%, 16%, and 10% of depleted PDN were converted to Nc in mouse, hamster, and human plasma, respectively. PDN was also metabolized in the liver microsomes. However, due to the fast metabolism of formed Nc in liver microsomes (sequential metabolism), only a trace amount of Nc was detected after incubation of PDN. Therefore, the metabolism kinetics of PDN was investigated to obtain the Vmax, in vitro, app and Km values of PDN depletion (Table 3).

[3] = Hamster PK and lung concentration study (non-compartmental analysis); conditions: for half-life: t1/2 Observed; for Tmax: Tmax Observed
Procedure: For the IV group, a single bolus IV dose of 3 mg/kg of PDN was administered to 24 hamsters (3 hamsters per time point). For the PO group, a dose of 30 mg/kg of PDN was administered via oral gavage to 21 hamsters (3 hamsters per time point). The formulation used for both IV and PO was 20% HP-β-CD in water (0.6 mg/mL PDN for IV and 3 mg/mL for PO). All dosing solutions were freshly prepared on the day of dosing. […] After collection, tissues were weighed and frozen. All blood samples were centrifuged at 4°C to obtain plasma. Plasma samples were transferred to tubes preloaded with NaF (final concentration at 5 mM in 200 µL plasma) and stored at −80°C until analysis.
For fat tissue, an additional 3-fold volume of acetonitrile was added to the water homogenate and was vortexed in a shaker for another 30 min.
A 10 μ aliquot of samples, blank controls (blank plasma or tissue homogenates), quality controls (QC), and standards were added into 200 μ acetonitrile solution with 100 ng/mL tolbutamide (internal standard, IS). All samples were then thoroughly shaken for 5 min to precipitate proteins. The samples were centrifuged at 3000 rpm and 4°C for 30 min. The supernatant was injected for UPLC-MS/MS analysis.
The mobile phase consisted of 0.1% formic acid in water (A) and 0.1% formic acid in acetonitrile (B), the flow rate was 600 μL/min. […] All analyses were carried out using a Waters Acquity I-Class UPLC interfaced with a Waters Xevo TQ-S mass spectrometer. The mass spectrometer multiple reaction monitoring (MRM) experiment was operated with an ESI source at negative mode with spray voltage of 1 kV, and temperature of 600°C. Both Q1 and Q3 were set at unit resolution. […] The correlation coefficients of the calibration curves were all greater than 0.99. […] The linear range, precision and accuracy of QCs in various tissues and plasma are shown in Supplementary Table S1 and Supplementary Table S2.
The area under the concentration vs. time curve (AUC) was calculated using the linear trapezoidal method. The terminal rate constant (λ) was obtained from the slope of at least three data points of the apparent terminal phase of the log linear concentration vs. time curve. AUC0–∞ was estimated as the sum of the AUC0–t (where t is the time of the last measurable concentration) and Ct/λ. […] Bioavailability (F) was calculated using ratios of dose-normalized AUC of PO and IV administration.

[4] = PBPK model (GastroPlus): simulation and model parameters incl. permeability surface product and scaled metabolic kinetics, mouse; conditions: for Liver Vmax / Plasma k: in vivo (scaled)
Procedure: CL in vitro,app expressed as mL/min/mg microsomes were scaled to the predicted CLintrinsic using scaling factor (SF), microsome level and liver weight as indicated below: CLintrinsic=CLin vitro,app×SF×liver weight×microsome level per gram liver
All modeling and simulation were carried out using GastroPlus version 9.5 (Simulations Plus Inc., CA). Physiochemical parameters including blood-to-plasma ratio (Rbp), pKa, and logP were predicted by ADMET predictor (Simulations Plus Inc., CA). Physiologies of all species, including organ weights, volumes, tissue compositions, and blood perfusion rates, were generated by the program’s internal module. Tissue intracellular unbound fractions were generated by GastroPlus based on predicted or experimentally determined physiochemical and chemical-biological parameters including pKa, logP, plasma unbound fractions (Fup), Rbp, solubility, and PAMPA permeability. The PBPK model structure is illustrated in Figure 2 and its parameters are summarized in Supplementary Tables S3–6. The default absorption and dissolution model was applied and effective intestine permeability was predicted by a built-in correlation from the experimental PAMPA permeability result. Parameters including partition coefficients in tissue (Kp), CLintrinsic, and permeability surface area product (PStc) were estimated by fitting the model to experimental data using the optimization module in GastroPlus with objective function weights at 1/(y + ŷ)^2, where y is the observed value and ŷ is the predicted value.
Model parameter estimation of all plasma-tissue partition coefficients (Kp) was performed simultaneously using both the IV and PO datasets. […] The experimentally determined pharmacokinetic profiles were compared with the model simulations.

SARS-CoV-2 = test system: SARS-CoV-2; design: method as in Huang et al., 2022; conditions: cytopathic effect assay and cytotoxicity counter screen; ref Huang et al., 2022; cited from earlier work
[5] = Metabolic stability in plasma; conditions: for Plasma k: mouse, in vitro
[6] = Metabolic stability in plasma; conditions: for Plasma k: hamster, in vitro
[7] = Metabolic stability and biotransformation in liver microsomes; conditions: for Liver Vmax: in vitro
Procedure: The incubation was carried out at 37°C for 15, 30, and 60 min. The reaction in plasma or liver microsomes was quenched by adding 200 μL of cold acetonitrile (containing 100 ng/mL tolbutamide as internal standard).
The mc was the microsome concentration used in the incubation (0.5 mg/mL). The substrate disappearance half-life (t1/2) was estimated by regression analysis of the semi-logarithmic (ln Conc vs. time) plots. […] The Vmax, in vitro,app, PDN-total and Km for PDN depletion in liver microsomes were estimated by the Michaelis-Menten model using GraphPad Prism version 8.

[8] = male, LVG golden Syrian, hamster, in vivo, iv, 3 mg/kg
[9] = male, LVG golden Syrian, hamster, in vivo, po, 30 mg/kg
[10] = male, LVG golden Syrian, hamster, in vivo, po, 30 mg/kg, hamsters, PO 30 mg/kg PDN, lung
[11] = male, LVG golden Syrian, hamster, in vivo, po, 30 mg/kg, hamsters, PO 30 mg/kg PDN, plasma

In the case of O=C(Nc1ccc([N+](=O)[O-])cc1Cl)c1cc(Cl)ccc1OC(=O)N1CCNCC1 [PDN], the Papp at 0.05 mM [1] is reported as over 100 ×10⁻⁶ cm/s, the half-life [2] is reported as over 2 h and the “AUC0-∞ Observed” value ([3]; hamsters, IV 3 mg/kg PDN, lung) is reported as 45600 (4266) h*ng/g. The “AUC0-∞ Observed” value ([3]; hamsters, PO 30 mg/kg PDN, lung) was 462000 (28500) h*ng/g, the “t1/2 Observed” value ([3]; hamsters, PO 30 mg/kg PDN, plasma, 30 mg/kg) was 1.8 (0.13) h and the AUC(0-inf) [3, 8] was 631 ng·h/mL. The Kp [3, 8] was 72, the Vd [3, 8] was 0.74 L and the clearance [3, 8] was 8 mL/min. The half-life ([3]; male, LVG golden Syrian, hamster, in vivo, iv, 3 mg/kg, hamsters, IV 3 mg/kg PDN, lung) was 1.1 h, the half-life ([3]; male, LVG golden Syrian, hamster, in vivo, iv, 3 mg/kg, hamsters, IV 3 mg/kg PDN, plasma) was 1.1 h and the AUC(0-inf) [3, 9] was 4320 ng·h/mL. For the same molecule, the CL/F [3, 9] was 11.5 mL/min, the Cmax [3, 9] was 98000 ng/g and 1060 ng/mL and the Kp [3, 9] was 107. For the same molecule, the Vd/F [3, 9] was 1.78 L, the bioavailability [3, 9] was about 64% and the Tmax [3, 10] was 1 h. For the same molecule, the Tmax [3, 11] was 0.5 h, the half-life [3, 10] was 2.3 h and the half-life [3, 11] was about 1.8 h. The “Liver Vmax” value ([4]; conversion to Nc) was 0.0015 mg/s/mg microsomes, the Plasma k ([4]; conversion to Nc) was 0.0067 s⁻¹ and the “Gut Vmax” value ([4]; conversion to Nc, in vivo, predicted from in vitro liver parameters) was 0.00004 mg/s/mg microsomes. The “Liver Vmax” value ([4]; conversion to Others) was 0.2310 mg/s/mg microsomes, the Plasma k ([4]; conversion to Others) was 0.0080 s⁻¹ and the “in vitro activity against SARS-CoV-2” value (SARS-CoV-2) was “showed in vitro activity against SARS-CoV-2”. The Plasma k ([5]; conversion to Nc) was 0.0058 s⁻¹, the Plasma k ([5]; conversion to Others) was 0.0062 s⁻¹ and the “kin vitro,app, PDN-total (total depletion of PDN)” value ([5]; mouse plasma, 37°C) was 0.0120 ± 0.0015 min⁻¹. For the same molecule, the Plasma k ([6]; conversion to Nc) was 0.0045 s⁻¹, the Plasma k ([6]; conversion to Others) was 0.0146 s⁻¹ and the “kin vitro,app, PDN-total (total depletion of PDN)” value ([6]; hamster plasma, 37°C) was 0.0191 ± 0.0044 min⁻¹. For the same molecule, the “Liver Vmax” value ([7]; conversion to Nc, human) was 0.0002 mg/s/mg microsomes, the “Gut Vmax” value ([7]; conversion to Nc, human, in vitro (in vitro liver parameters)) was 0.00024 mg/s/mg microsomes and the “Liver Vmax” value ([7]; conversion to Others, human) was 0.0106 mg/s/mg microsomes. For the same molecule, the “Vmax in vitro,app, PDN-total” value ([7]; human liver microsomes) was 0.365 ± 0.187 nmol/min/mg and the Km ([7]; human, pH 7.4) was 33.8 ± 29.1 µM.
